The record followed here is patent US8546434B2, “Triazole compounds as KSP inhibitors” (Novartis AG, priority 2010, dated 2013).

The target of the first test is motor domain of human KSP (Eg 5, KNSL1) (Homo sapiens (Human), UniProt P52732). Kind of test: Assay for determining KSP activity (microtubule-stimulated ATPase, Biomol Green phosphate detection). The following applies: KSP motor domain 3 nM, bovine brain microtubules 50 μg/mL, 2 hours at RT, absorbance at 650 nm; read-out: Biological Activity (IC50). The format is biochemical. The method, then: This example provides a representative in vitro assay for determining KSP activity in vitro. Purified microtubules obtained from bovine brain were purchased from Cytoskeleton Inc. (Denver, Colo., USA). The motor domain of human KSP (Eg 5, KNSL1) was cloned, expressed, and purified to greater than 95% homogeneity. Biomol Green was purchased from BIOMOL International L.P. (Plymouth Meeting, Pa., USA). The microtubules were rapidly thawed at 37° C. for 10 minutes before making dilution. Microtubules and KSP motor protein (i.e., the KSP motor domain) were diluted in assay buffer (20 mM Tris-HCl (pH 7.5), 1 mM MgCl2, 10 mM DTT and 0.125% BSA) to a final concentration of 50 μg/mL microtubules and 3 nM KSP.
Sequence of motor domain of human KSP (Eg 5, KNSL1) (P52732 18-359): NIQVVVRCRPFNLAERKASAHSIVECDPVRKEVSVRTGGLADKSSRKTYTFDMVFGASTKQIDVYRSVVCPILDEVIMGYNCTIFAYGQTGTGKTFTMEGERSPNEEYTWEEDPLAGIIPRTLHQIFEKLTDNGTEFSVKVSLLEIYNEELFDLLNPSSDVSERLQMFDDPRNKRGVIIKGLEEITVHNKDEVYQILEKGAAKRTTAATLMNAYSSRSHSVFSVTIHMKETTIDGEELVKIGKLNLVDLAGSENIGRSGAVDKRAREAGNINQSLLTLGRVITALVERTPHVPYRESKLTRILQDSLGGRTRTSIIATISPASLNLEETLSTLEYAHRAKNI
To each well of the testing plate (96-well half area plate) containing 1.25 μL of inhibitor or test compound in DMSO (or DMSO only in the case of controls) were added 25 μL of ATP solution (ATP diluted to a concentration of 250 μM in assay buffer) and 25 μL of the above-described microtubule/KSP solution. The plates were incubated at RT for 2 hours. Following incubation, 65 μL of Biomol Green (a malachite green-based dye that detects the release of inorganic phosphate) with 0.015% Tween 20 was added to each well. The plates were incubated for an additional 15-20 minutes then the absorbance at 650 nm was determined using a Molecular Devices Spectrophotometer. The amount of absorbance at 650 nm corresponded to the amount of KSP activity in the samples. The IC50 of each inhibitor or test compound was then determined based on the decrease in absorbance at 650 nm at each concentration, via nonlinear regression using either XLFit for Excel or Prism data analysis software by GraphPad Software Inc.
For `C[C@@H]1CN(C(=O)N(C[C@@H]2CNC[C@@H]2F)[C@@H](c2nc(-c3cc(F)ccc3F)nn2Cc2cccc(F)c2)C(C)(C)C)C[C@H](C)O1` (stereo in doubt) [Compound 3, N—((R)-1-(3-(2,5-difluorophenyl)-1-(3-fluorobenzyl)-1H-1,2,4-triazol-5-yl)-2,2-dimethylpropyl)-N-(((3R,4R)-4-fluoropyrrolidin-3-yl)methyl)-2,6-dimethylmorpholine-4-carboxamide], the IC50 (usually the midpoint of a concentration-inhibition curve) turned out to be 0.74 nM. The same measure, in the same setting: for `C[C@H](O)C(=O)N(CC1CNC[C@@H]1F)[C@@H](c1nc(-c2cc(F)ccc2F)nn1Cc1ccccc1)C(C)(C)C` (stereo in doubt) [Compound 4, (S)—N—((R)-1-(1-benzyl-3-(2,5-difluorophenyl)-1H-1,2,4-triazol-5-yl)-2,2-dimethylpropyl)-N-(((3R,4R)-4-fluoropyrrolidin-3-yl)methyl)-2-hydroxypropanamide] the value was 0.6 nM; for `C[C@@H]1CN(C(=O)N(C[C@@H]2CNC[C@@H]2F)[C@@H](c2nc(-c3cc(F)ccc3F)nn2Cc2ccccc2)C(C)(C)C)C[C@H](C)O1` (stereo in doubt) [Compound 2, N—((R)-1-(1-benzyl-3-(2,5-difluorophenyl)-1H-1,2,4-triazol-5-yl)-2,2-dimethylpropyl)-N-(((3R,4R)-4-fluoropyrrolidin-3-yl)methyl)-2,6-dimethylmorpholine-4-carboxamide], 0.83 nM; for `CC(C)(C)C(c1nc(-c2cc(F)ccc2F)nn1Cc1cccc(F)c1)N(CC1CNC[C@@H]1F)C(=O)C1CCCO1` (stereo in doubt) [Compound 5, (S)—N—((R)-1-(3-(2,5-difluorophenyl)-1-(3-fluorobenzyl)-1H-1,2,4-triazol-5-yl)-2,2-dimethylpropyl)-N-(((3R,4R)-4-fluoropyrrolidin-3-yl)methyl)tetrahydrofuran-2-carboxamide], 1.46 nM.

Turning to `C[C@H](O)C(=O)N(CC1CNC[C@@H]1F)[C@@H](c1nc(-c2cc(F)ccc2F)nn1Cc1cccc(F)c1)C(C)(C)C` (stereo in doubt) [Compound 6, (S)—N—((R)-1-(3-(2,5-difluorophenyl)-1-(3-fluorobenzyl)-1H-1,2,4-triazol-5-yl)-2,2-dimethylpropyl)-N-(((3R,4R)-4-fluoropyrrolidin-3-yl)methyl)-2-hydroxypropanamide], the IC50 came out at 0.83 nM. Same read-out and setting: for `CC(C)(C)[C@H](c1nc(-c2cc(F)ccc2F)nn1Cc1ccccc1)N(CC1CNC[C@@H]1F)C(=O)C1CCCO1` (stereo in doubt) [Compound 1, (S)—N—((R)-1-(1-benzyl-3-(2,5-difluorophenyl)-1H-1,2,4-triazol-5-yl)-2,2-dimethylpropyl)-N-(((3R,4R)-4-fluoropyrrolidin-3-yl)methyl)tetrahydrofuran-2-carboxamide] the value was 0.96 nM.

Staying with this test, now noted: KSP motor domain 3 nM, bovine brain microtubules 50 μg/mL, 2 hours at RT, absorbance at 650 nm; read-out: KSP IC50.
Turning to `CCN1C[C@@H](CN(C(=O)[C@@H]2CCCO2)[C@@H](c2nc(-c3cc(F)ccc3F)nn2Cc2cccc(F)c2)C(C)(C)OC)[C@@H](F)C1` [Compound 9], the IC50 was found to be 49.4 nM.

Consider `COC(C)(C)[C@H](c1nc(-c2cc(F)ccc2F)nn1Cc1ccccc1)N(C[C@@H]1CNC[C@@H]1F)C(=O)[C@@H]1CCCO1` [Compound 13], for which the IC50 was 0.69 nM. The same measure, in the same setting: then `COC(C)(C)[C@H](c1nc(-c2cc(F)ccc2F)nn1Cc1cccc(F)c1)N(C[C@@H]1CNC[C@@H]1F)C(=O)[C@H](C)O` [Compound 12], with 0.87 nM; and `COC(C)(C)[C@H](c1nc(-c2cc(F)ccc2F)nn1Cc1cccc(F)c1)N(C[C@@H]1CNC[C@@H]1F)C(=O)[C@@H]1CCCO1` [Compound 10], with 0.9 nM. Consider `COC(C)(C)[C@H](c1nc(-c2cc(F)ccc2F)nn1Cc1ccccc1)N(CC[C@H](N)CF)C(=O)[C@H](C)O` [Compound 14], for which the IC50 is 2.34 nM. Still for that read-out and setting: for `COC(C)(C)[C@H](c1nc(-c2cc(F)ccc2F)nn1Cc1ccccc1)N(CC[C@H](N)CF)C(=O)[C@@H]1CCCO1` [Compound 11] the value was 1.4 nM. On to `COC(C)(C)[C@H](c1nc(-c2cc(F)ccc2F)nn1Cc1cccc(F)c1)N(CC[C@H](N)CF)C(=O)[C@@H]1CCCO1` [Compound 7], for which the IC50 is 1.23 nM.

On to `COC(C)(C)[C@H](c1nc(-c2cc(F)ccc2F)nn1Cc1cccc(F)c1)N(CC[C@H](N)CF)C(=O)[C@H](C)O` [Compound 8], for which the IC50 was 1.49 nM.
